Measured values taken from patent US9951226B2, “Compound based on cyanine scaffold for diagnosis sepsis by selectively detect glutathione” (EWHA UNIVERSITY—INDUSTRY COLLABORATION FOUNDATION, priority 2014, dated 2018).

Columns and labels:
[1] = Absorption and fluorescence spectrum over the time after reaction with glutathione; assay type: biochemical; conditions: 10 μM compound, 100 μM glutathione, HEPES pH 7.4, 10% DMSO
Experimental: 10 μM of the compound prepared in Example 2 and 100 μM of glutathione were added to HEPES (4-(2-hydroxyethyl)piperazine-1-ethanesulfonic acid) buffer (10 mM, pH=7.4) containing 10% dimethylsulfoxide (DMSO), followed by observation of absorption spectrum at 25° C. using UV-vis sepctra (Scinco 3000 spectrophotometer, 1 cm quartz cell) over the time. The results are shown in FIG. 8 (spectrum was photographed every 0.5 minute).
(§1) The following experiment was performed by the same manner as described in Experimental Example <5-1> except that fluorescence spectrum was observed by using RF-5310/PC fluorescence spectrometer (Shimada, 1 cm quartz cell) instead of observing absorption spectrum via UV-vis sepctra (Scinco 3000 spectrophotometer, 1 cm quartz cell) (λex=730 nm, λem=736 nm, slit:10/10 nm). The results are shown in FIG. 9 (spectrum was photographed every 0.5 minute).

[2] = test system: neutrophils of peritoneal cells; assay: Capacity of diagnosing sepsis: FACS of neutrophils of peritoneal cells from CLP sepsis mouse; assay type: cell-based; conditions: 8 hours, 10 μM compound
Experimental: According to a reference (J Vis Exp. 2011 May 7; (51). pii: 2860. doi: 10.3791/2860), C57BL/6 mouse (7˜8 weeks old, female, Jackson Laboratory) was induced with sepsis by performing CLP (cecal ligation and puncture). 8 hours later, peritoneal cells were extracted from the mouse. The cells were centrifuged and reacted to the neutrophil marker Ly6G (eFluor®450, eBioscience, Cat No. 48-5931) and 10 μM of the compound prepared in Example 2 at room temperature. 25 minutes later, 1 mL of 3% fetal bovine serum (FBS) was added thereto, followed by centrifugation at 3000 rpm for 5 minutes to wash the cells. The cells were resuspended in […] of HEPES (4-(2-hydroxyethyl)piperazine-1-ethanesulfonic acid) buffer (10 mM, pH=7.4), followed by FACS (Fluorescence Activated Cell Sorting) using the data analysis software FlowJo to observe the peaks (The setting for Alexa flour 700 fluorescence was hired, BD FACSVerse™).

C57BL/6 mouse [3] = assay: Detection of glutathione in a mouse model with acetaminophen (APAP), IVIS imaging; assay type: in vivo
Experimental: (§2) 200 μL of HEPES (4-(2-hydroxyethyl)piperazine-1-ethanesulfonic acid) buffer (10 mM, pH=7.4) containing 300 mg/kg of acetaminophen (APAP) known as a pain killer was administered to each C57BL/6 mouse (7˜8 weeks old, female, Jackson Laboratory) via intravenous injection. The said APAP works as a pain killer in vivo when administered at a proper dose, but when treated at over-dose, it can damage organs and also reduce in vivo glutathione. 20 minutes later, 200 μL of HEPES (4-(2-hydroxyethyl)piperazine-1-ethanesulfonic acid) buffer (10 mM, pH=7.4) containing 50 mM of the compound prepared in Example 2 was administered to the mouse via intravenous injection. 20 minutes later, the strength of fluorescence was observed by using the epifluorescence mode of In Vivo Imaging System (IVIS) spectrum (Caliper LifeSciences, USA) equipped with the filter having the wavelengths of 675 nm and 720 nm [the strength of fluorescence was measured by Living Image Software 4.3.1 (Caliper Life Sciences, USA)].

[4] = Glutathione selectivity: absorption/fluorescence spectrum with various amino acids in HEPES buffer; assay type: biochemical; conditions: 10 μM compound
Experimental: 10 μM of the compound prepared in Example 2 was treated to HEPES (4-(2-hydroxyethyl)piperazine-1-ethanesulfonic acid) buffer (10 mM, pH=7.4) containing 10% DMSO and 100 μM of each glutathione, cysteine, homocysteine, dithiothreitol, phenylalanine, histidine, glutamine, lysine, glutamate, glycine, serine, alanine, arginine, methionine, and tyrosine, followed by observation of fluorescence spectrum at 25° C. by using RF-5310/PC fluorescence spectrometer (Shimada, 1 cm quartz cell).
An experiment was performed by the same manner as described in Experimental Example 3 except that the fragment 1 or the fragment 2 was used instead of the compound prepared in Example 2. […] To disclose the reason in relation to the above, the 3-dimensional structure of each of the compound of Example 1, the compound of Example 2, and the fragment 1 or the fragment 2, was investigated along with band-gap.
10 μM of the compound prepared in Example 3 and 100 μM of each endogenous amino acid (alanine, arginine, cysteine, glutamate, glycine, glutathione, homocysteine, histidine, lysine, methionine, serine, and tyrosine) were added to HEPES (4-(2-hydroxyethyl)piperazine-1-ethanesulfonic acid) buffer (10 mM, pH=7.4) containing 10% dimethylsulfoxide (DMSO), followed by observation of absorption spectrum presented through UV-vis sepctra (Scinco 3000 spectrophotometer, 1 cm quartz cell) at 25° C.
as §1, with “<15-1>” for “<5-1>”, “nm).” for “nm). The results are shown in FIG. 9 (spectrum was photographed every 0.5 minute).”

C57BL/6 mouse [5] = assay: Detection of glutathione in a mouse model with N-methylmaleimide (NMM), IVIS imaging; assay type: in vivo
Experimental: as §2, with “20 mM” for “300 mg/kg”, “N-methylmaleimide (NMM)” for “acetaminophen (APAP)”, “thiol blocker” for “pain killer”, “injection.” for “injection. The said APAP works as a pain killer in vivo when administered at a proper dose, but when treated at over-dose, it can damage organs and also reduce in vivo glutathione.”

[6] = mouse treated with the compound alone
[7] = mouse treated with the compound alone, intravenous injection, 20 minutes
[8] = mouse treated with NMM together with the compound

CCCN1/C(=C/C=C2\CCCC(/C=C/C3=[N+](CCC)c4ccccc4C3(C)C)=C2N2CCN(S(=O)(=O)c3cccc4c(N(C)C)cccc34)CC2)C(C)(C)c2ccccc21.[I-] [Example 2, 2-((E)-2-((E)-3-((E)-2-(3,3-dimethyl-1-propylindolin-2-ylidene)ethylidene)-2-(4-(5-(dimethylamino)naphthalene-1-ylsulfonyl)piperazine-1-yl)cyclohex-1-enyl)binyl)-3,3-dimethyl-1-propyl-3H-indolium iodide]
time to maximum fluorescence signal at 736 nm [1]: ≤ 15 min | time to minimum absorption signal at 750 nm ([1]; 25° C.): ≤ 15 min | glutathione level in neutrophils detected by the compound (FACS), sepsis mouse compared with normal mouse [2]: reduced | red fluorescence of the mouse, IVIS spectrum (C57BL/6 mouse [3]; mouse treated with acetaminophen (APAP) 300 mg/kg together with the compound): red fluorescence was not observed | red fluorescence in liver, kidney, lung, and spleen, IVIS spectrum (C57BL/6 mouse [3]; mouse treated with acetaminophen (APAP) together with the compound): red fluorescence was not observed | red fluorescence in liver, kidney, lung, and spleen, IVIS spectrum (C57BL/6 mouse [3]; [6]): strong red fluorescence was observed | red fluorescence of the mouse, IVIS spectrum (C57BL/6 mouse [3]; [7]): strong red fluorescence was observed | fluorescence strength near 735 nm ([4]; 100 μM glutathione, HEPES pH 7.4, 10% DMSO, 25° C.): strong fluorescence strength | fluorescence strength at 736 nm ([4]; 100 μM other amino acids, HEPES pH 7.4, 10% DMSO): very weak fluorescence strength | fluorescence signal at around 736 nm over the time: selectivity among cysteine, homocysteine and glutathione ([4]; glutathione, cysteine, homocysteine, FIG. 5): selectively reacted to glutathione alone | red fluorescence in liver, kidney, lung, and spleen, IVIS spectrum (C57BL/6 mouse [5]; [8]): red fluorescence was not observed | red fluorescence of the mouse, IVIS spectrum (C57BL/6 mouse [5]; [8]): red fluorescence was not observed | red fluorescence in liver, kidney, lung, and spleen, IVIS spectrum (C57BL/6 mouse [5]; [6]): strong red fluorescence was observed | red fluorescence of the mouse, IVIS spectrum (C57BL/6 mouse [5]; [7]): strong red fluorescence was observed
